Read-outs that look alike come from different tables or passages of the source.
What was measured:
human NK1 receptor = human NK1 receptor (Homo sapiens, UniProt P25103); test: NK1 receptor binding, [3H]substance P displacement, CHO cell membranes; conditions: first value of the cell pKi NK1/NK3; human NK1 receptor, [3H]substance P
[1] = target: T1, Recombinant human NK3 (hNK3) receptor (Homo sapiens, UniProt P29371); test: NK3 receptor binding, [3H]SR142801 displacement, membrane preparations
T1 construct: expressed in transfected cells
T1 sequence (P29371 1-465): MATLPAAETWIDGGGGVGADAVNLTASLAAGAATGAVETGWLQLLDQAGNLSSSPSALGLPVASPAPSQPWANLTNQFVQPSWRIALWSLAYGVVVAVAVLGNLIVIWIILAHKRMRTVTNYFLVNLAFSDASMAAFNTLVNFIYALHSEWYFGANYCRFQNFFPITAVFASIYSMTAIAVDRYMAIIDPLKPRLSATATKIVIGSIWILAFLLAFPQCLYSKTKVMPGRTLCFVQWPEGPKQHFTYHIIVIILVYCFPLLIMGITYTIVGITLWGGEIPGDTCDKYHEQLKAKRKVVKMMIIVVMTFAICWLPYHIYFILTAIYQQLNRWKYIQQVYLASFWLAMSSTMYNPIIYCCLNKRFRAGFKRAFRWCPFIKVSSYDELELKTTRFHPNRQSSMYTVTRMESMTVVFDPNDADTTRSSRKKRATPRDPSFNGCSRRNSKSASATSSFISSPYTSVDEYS
Protocol: Non specific binding was determined using 10 μM SB222200. Assay buffer consisted of Tris-HCl (50 mM, pH 7.4), BSA (0.1%), MnCl2 (4 mM) and phosphoramidon (1 μM). Membrane preparations of hNK3 receptors (approximately 2.5 μg/well in a 96 well plate) were used to initiate the incubation for 90 min at room temperature. This assay was terminated by rapid filtration under vacuum through GF/C filters, presoaked for 90 min with PEI (0.3%), with 3×0.5 ml washes of ice-cold Tris buffer (50 mM, pH 7.4) containing 0.1% BSA. The radioactivity retained on the filters was measured by scintillation counting. All assays were performed in duplicate in at least two separate experiments.

[2] = second value of the cell pKi NK1/NK3, hNK3 receptor, [3H]SR142801
[3] = second value of the cell NK1/NK3, read-out: pKi NK3 (converted)

Sequence of human NK1 receptor (P25103 whole entry): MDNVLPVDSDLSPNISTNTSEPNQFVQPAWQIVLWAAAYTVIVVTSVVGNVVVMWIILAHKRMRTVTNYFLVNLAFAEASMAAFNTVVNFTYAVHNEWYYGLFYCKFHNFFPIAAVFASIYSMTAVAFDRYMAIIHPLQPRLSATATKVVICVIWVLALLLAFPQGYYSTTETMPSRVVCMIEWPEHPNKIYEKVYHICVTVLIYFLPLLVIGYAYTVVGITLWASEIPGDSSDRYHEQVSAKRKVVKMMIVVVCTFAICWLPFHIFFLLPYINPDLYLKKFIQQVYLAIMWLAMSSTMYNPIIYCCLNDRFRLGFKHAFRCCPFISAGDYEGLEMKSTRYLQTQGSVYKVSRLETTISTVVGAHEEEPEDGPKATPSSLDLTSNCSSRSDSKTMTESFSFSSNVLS

| SMILES | Ki (human NK1 receptor) [nM] | Ki [1, 2] [nM] | Ki [1, 3] [nM] |
| --- | --- | --- | --- |
| CCN(C(C)=O)C1CCN(c2cc(-c3ccccc3Cl)c(N(C)C(=O)C(C)(C)c3cc(C(F)(F)F)cc(C(F)(F)F)c3)cn2)C1 (racemic) [Example 45, (RS)-N-[6-[3-(Acetyl-ethyl-amino)-pyrrolidin-1-yl]-4-(2-chloro-phenyl)-pyridin-3-yl]-2-(3,5-bis-trifluoromethyl-phenyl)-N-methyl-isobutyramide] | 2.29 | 2 |  |
| CN(C(=O)C(C)(C)c1cc(C(F)(F)F)cc(C(F)(F)F)c1)c1cnc(N2CCCC(O)C2)cc1-c1ccccc1Cl (racemic) [Example 50, (RS)-2-(3,5-Bis-trifluoromethyl-phenyl)-N-[4′-(2-chloro-phenyl)-3-hydroxy-3,4,5,6-tetrahydro-2H-[1,2′]bipyridinyl-5′-yl]-N-methyl-isobutyramide] | 1.41 | 14.5 |  |
| CN(C(=O)C(C)(C)c1cc(C(F)(F)F)cc(C(F)(F)F)c1)c1cnc(N2CCCCC2CCO)cc1-c1ccccc1Cl (racemic) [Example 53, (RS)-2-(3,5-Bis-trifluoromethyl-phenyl)-N-[4′-(2-chloro-phenyl)-2-(2-hydroxy-ethyl)-3,4,5,6-tetrahydro-2H-[1,2′]bipyridinyl-5′-yl]-N-methyl-isobutyramide] | 2.51 | 24.5 |  |
| CN(CC(O)CO)c1cc(-c2ccccc2Cl)c(N(C)C(=O)C(C)(C)c2cc(C(F)(F)F)cc(C(F)(F)F)c2)cn1 (racemic) [Example 58, (RS)-2-(3,5-Bis-trifluoromethyl-phenyl)-N-{4-(2-chloro-phenyl)-6-[(2,3-dihydroxy-propyl)-methyl-amino]-pyridin-3-yl}-N-methyl-isobutyramide] | 2.4 | 5.75 |  |
| CN(C(=O)C(C)(C)c1cc(C(F)(F)F)cc(C(F)(F)F)c1)c1cnc(N2CCC(S(C)(=O)=O)C2)cc1-c1ccccc1Cl (racemic) [Example 66, (RS)-2-(3,5-Bis-trifluoromethyl-phenyl)-N-[4-(2-chloro-phenyl)-6-(3-methanesulfonyl-pyrrolidin-1-yl)-pyridin-3-yl]-N-methyl-isobutyramide] | 1.48 | 1.29 |  |
| CC(O)CNc1cc(-c2ccccc2Cl)c(N(C)C(=O)C(C)(C)c2cc(C(F)(F)F)cc(C(F)(F)F)c2)cn1 (racemic) [Example 74, (RS)-2-(3,5-Bis-trifluoromethyl-phenyl)-N-[4-(2-chloro-phenyl)-6-(2-hydroxy-propylamino)-pyridin-3-yl]-N-methyl-isobutyramide] | 0.871 | 5.75 |  |
| CN(C(=O)C(C)(C)c1cc(C(F)(F)F)cc(C(F)(F)F)c1)c1cnc(NCC(O)CO)cc1-c1ccccc1Cl (racemic) [Example 78, (RS)-2-(3,5-Bis-trifluoromethyl-phenyl)-N-[4-(2-chloro-phenyl)-6-(2,3-dihydroxy-propylamino)-pyridin-3-yl]-N-methyl-isobutyramide] | 2.82 | 6.17 |  |
| Cc1cc(F)ccc1-c1cc(N2CCC(O)C2)ncc1N(C)C(=O)C(C)(C)c1cc(C(F)(F)F)cc(C(F)(F)F)c1 (racemic) [Example 110, (RS)-2-(3,5-Bis-trifluoromethyl-phenyl)-N-[4-(4-fluoro-2-methyl-phenyl)-6-(3-hydroxy-pyrrolidin-1-yl)-pyridin-3-yl]-N-methyl-isobutyramide] | 2.63 | 13.8 |  |
| CN(C(=O)C(C)(C)c1cc(C(F)(F)F)cc(C(F)(F)F)c1)c1cnc(N2CCCCC2CO)cc1-c1ccccc1Cl (racemic) [Example 141, (RS)-2-(3,5-Bis-trifluoromethyl-phenyl)-N-[4′-(2-chloro-phenyl)-2-hydroxymethyl-3,4,5,6-tetrahydro-2H-[1,2′]bipyridinyl-5′-yl]-N-methyl-isobutyramide] | 6.46 | 18.6 |  |
| CN(C(=O)C(C)(C)c1cc(C(F)(F)F)cc(C(F)(F)F)c1)c1cnc(N[C@@H]2CCCC[C@H]2O)cc1-c1ccccc1Cl (racemic) [Example 151, (1RS,2RS)-2-(3,5-Bis-trifluoromethyl-phenyl)-N-[4-(2-chloro-phenyl)-6-(2-hydroxy-cyclohexylamino)-pyridin-3-yl]-N-methyl-isobutyramide] | 1.15 | 27.5 |  |
| Cc1cc(F)ccc1-c1cc(N2CCC(S(C)(=O)=O)C2)ncc1N(C)C(=O)C(C)(C)c1cc(C(F)(F)F)cc(C(F)(F)F)c1 (racemic) [Example 170, (RS)-2-(3,5-Bis-trifluoromethyl-phenyl)-N-[4-(4-fluoro-2-methyl-phenyl)-6-(3-methanesulfonyl-pyrrolidin-1-yl)-pyridin-3-yl]-N-methyl-isobutyramide] | 1.95 | 9.12 |  |
| CN(C(=O)C(C)(C)c1cc(C(F)(F)F)cc(C(F)(F)F)c1)c1cnc(N2CCC(CO)C2)cc1-c1ccccc1Cl (racemic) [Example 171, (RS)-2-(3,5-Bis-trifluoromethyl-phenyl)-N-[4-(2-chloro-phenyl)-6-(3-hydroxymethyl-pyrrolidin-1-yl)-pyridin-3-yl]-N-methyl-isobutyramide] | 3.72 | 24.5 |  |
| Cc1ccccc1-c1cc(N2CCOC(CO)C2)ncc1N(C)C(=O)C(C)(C)c1cc(C(F)(F)F)cc(C(F)(F)F)c1 (racemic) [Example 176, (RS)-2-(3,5-Bis-trifluoromethyl-phenyl)-N-[6-(2-hydroxymethyl-morpholin-4-yl)-4-o-tolyl-pyridin-3-yl]-N-methyl-isobutyramide] | 2.09 | 26.3 |  |
| Cc1cc(F)ccc1-c1cc(N2CCS(=O)(=O)CC2CO)ncc1N(C)C(=O)C(C)(C)c1cc(C(F)(F)F)cc(C(F)(F)F)c1 (racemic) [Example 177, (RS)-2-(3,5-Bis-trifluoromethyl-phenyl)-N-[4-(4-fluoro-2-methyl-phenyl)-6-(3-hydroxymethyl-1,1-dioxo-1λ^6-thiomorpholin-4-yl)-pyridin-3-yl]-N-methyl-isobutyramide] | 1.2 | 2.63 |  |
| Cc1ccccc1-c1cc(N2CCS(=O)(=O)CC2CO)ncc1N(C)C(=O)C(C)(C)c1cc(C(F)(F)F)cc(C(F)(F)F)c1 (racemic) [Example 178, (RS)-2-(3,5-Bis-trifluoromethyl-phenyl)-N-[6-(3-hydroxymethyl-1,1-dioxo-1λ^6-thiomorpholin-4-yl)-4-o-tolyl-pyridin-3-yl]-N-methyl-isobutyramide] | 0.933 | 3.47 |  |
| Cc1ccccc1-c1cc(N2CC[C@H](O)[C@H](O)C2)ncc1N(C)C(=O)C(C)(C)c1cc(C(F)(F)F)cc(C(F)(F)F)c1 (racemic) [Example 185, (3RS,4SR)-2-(3,5-Bis-trifluoromethyl-phenyl)-N-(3,4-dihydroxy-4′-o-tolyl-3,4,5,6-tetrahydro-2H-[1,2′]bipyridinyl-5′-yl)-N-methyl-isobutyramide] | 1.55 | 32.4 |  |
| Cc1ccccc1-c1cc(N2CC[C@@H](O)[C@H](O)C2)ncc1N(C)C(=O)C(C)(C)c1cc(C(F)(F)F)cc(C(F)(F)F)c1 (racemic) [Example 186, (3RS,4RS)-2-(3,5-Bis-trifluoromethyl-phenyl)-N-(3,4-dihydroxy-4′-o-tolyl-3,4,5,6-tetrahydro-2H-[1,2′]bipyridinyl-5′-yl)-N-methyl-isobutyramide] | 1.41 | 12.3 |  |
| COc1cc(OC)cc(C(C)(C)C(=O)N(C)c2cnc(N3C[C@H](O)C[C@H]3CO)cc2-c2ccccc2C)c1 [Example 400, (2S,4R)-2-(3,5-Dimethoxy-phenyl)-N-[6-(4-hydroxy-2-hydroxymethyl-pyrrolidin-1-yl)-4-o-tolyl-pyridin-3-yl]-N-methyl-isobutyramide] |  |  | 6.03 |
| COc1cc(OC)cc(C(C)(C)C(=O)N(C)c2cnc(NCCO)cc2-c2ccc(F)cc2C)c1 [Example 401, 2-(3,5-Dimethoxy-phenyl)-N-[4-(4-fluoro-2-methyl-phenyl)-6-(2-hydroxy-ethylamino)-pyridin-3-yl]-N-methyl-isobutyramide] |  |  | 20 |
| COc1cc(OC)cc(C(C)(C)C(=O)N(C)c2cnc(N3CCC[C@H]3CO)cc2-c2ccc(F)cc2C)c1 [Example 402, (S)-2-(3,5-Dimethoxy-phenyl)-N-[4-(4-fluoro-2-methyl-phenyl)-6-(2-hydroxymethyl-pyrrolidin-1-yl)-pyridin-3-yl]-N-methyl-isobutyramide] |  |  | 4.68 |
| COc1cc(OC)cc(C(C)(C)C(=O)N(C)c2cnc(N3C[C@H](O)C[C@H]3CO)cc2-c2ccc(F)cc2C)c1 [Example 403, (2S,4R)-2-(3,5-Dimethoxy-phenyl)-N-[4-(4-fluoro-2-methyl-phenyl)-6-(4-hydroxy-2-hydroxymethyl-pyrrolidin-1-yl)-pyridin-3-yl]-N-methyl-isobutyramide] |  |  | 5.75 |

From patent US8404708B2, “Dual NK1/NK3 receptor antagonists” (Hoffmann-La Roche Inc., priority 2004, dated 2013)
